According to EPA's ToxRefDB 2:

What was measured:
rat [1] = settings: Sub-acute repeat dose toxicity, sprague dawley, Injection, Intraperitoneal, dose end: 30 day, group: systemic
rat [2] = settings: Fertility (Segment I), sprague dawley, Injection, Intraperitoneal, dose end: 7 GD
rat [3] = settings: Combined chronic toxicity/carcinogenicity, sprague dawley, Oral, Feed, dose end: 104 week, group: systemic
rat [4] = settings: Multigenerational reproductive toxicity study, sprague dawley, Oral, Feed, dose end: 2 generation
rat [5] = settings: Prenatal developmental toxicity study, sprague dawley, Oral, Gavage/Intubation, dose end: 15 GD
dog [6] = settings: Chronic toxicity; beagle; Oral; Feed; dose end: 52 week; group: systemic; systemic / pathology microscopic / liver / degeneration + systemic / pathology microscopic / liver / hyperplasia + systemic / pathology …
rat [7] = settings: Subchronic oral toxicity in rodents, sprague dawley, Feed, dose end: 90 day, group: systemic, systemic / in life observation / body weight / body weight + systemic / in life observation / body weight / body weight gain + systemic / in…
primate = settings: Subchronic oral toxicity in nonrodent, macaque, Gavage/Intubation, dose end: 28 day, group: systemic, systemic / clinical chemistry / [other] / [other] + systemic / in life observation / clinical signs / emesis + systemic / in life …
rat [8] = settings: Chronic toxicity, sprague dawley, Oral, Gavage/Intubation, dose end: 26 week, group: systemic
rat [9] = settings: Sub-acute repeat dose toxicity, sprague dawley, Oral, Gavage/Intubation, dose end: 28 day, group: systemic
rat [10] = settings: Subchronic oral toxicity in rodents, fischer, Feed, dose end: 13 week, group: systemic, systemic / hematology / erythrocyte (rbc) count differential / erythrocyte (rbc) + systemic / hematology / hematocrit (hct) / hematocrit (…
dog [11] = settings: Sub-acute repeat dose toxicity, beagle, Injection, Intravenous, dose end: 1 month, group: systemic
mouse [12] = settings: Carcinogenicity, cd1, Oral, Feed, dose end: 78 week, group: systemic
rat [13] = settings: Subchronic oral toxicity in rodents, fischer, Feed, dose end: 90 day
mouse [14] = settings: Subchronic oral toxicity in rodents, b6c3f1, Feed, dose end: 13 week, group: systemic
rat [15] = settings: Subchronic oral toxicity in rodents, fischer, Feed, dose end: 13 week, group: systemic
rat [16] = settings: Carcinogenicity; fischer; Oral; Feed; dose end: 2 year; group: systemic; systemic / pathology microscopic / skin / keratoacanthoma
mouse [17] = settings: Carcinogenicity; b6c3f1; Oral; Feed; dose end: 2 year; group: systemic; systemic / in life observation / body weight / body weight
dog [18] = settings: Subchronic oral toxicity in nonrodent, beagle, Feed, dose end: 13 week
rat [19] = settings: Subchronic oral toxicity in rodents, other, Feed, dose end: 15 week, group: cholinesterase
[20] = systemic / clinical chemistry / creatinine / creatinine + systemic / in life observation / food consumption / food consumption + systemic / …
[21] = systemic / pathology microscopic / ovary / follicle count + systemic / in life observation / body weight / body weight
[22] = group: maternal, reproductive / reproductive performance / implantations / implantations + reproductive / reproductive performance / preimplantation loss / …
[23] = group: parental, systemic / in life observation / body weight / body weight gain + systemic / organ weight / ovary / absolute + systemic / organ weight / …
[24] = systemic / in life observation / body weight / body weight + systemic / in life observation / body weight / body weight gain
[25] = systemic / in life observation / body weight / body weight + systemic / in life observation / body weight / body weight gain + systemic / …
[26] = group: offspring, systemic / in life observation / body weight / offspring (pup) weight + systemic / in life observation / body weight / offspring (pup) …
[27] = group: parental, systemic / in life observation / body weight / body weight + systemic / in life observation / body weight / body weight gain
[28] = group: developmental, developmental / developmental malformation / bone / unossified
[29] = group: maternal, systemic / in life observation / clinical signs / drooping eyelids (ptosis) + systemic / in life observation / clinical signs / salivation…
[30] = systemic / clinical chemistry / alanine aminotransferase (alt/sgpt) / alanine aminotransferase (alt/sgpt) + systemic / clinical chemistry / …
[31] = systemic / clinical chemistry / alanine aminotransferase (alt/sgpt) / alanine aminotransferase (alt/sgpt) + systemic / in life observation…
[32] = systemic / hematology / platelet / platelet + systemic / in life observation / clinical signs / salivation
[33] = systemic / clinical chemistry / [other] / [other] + systemic / hematology / erythrocyte (rbc) count differential / erythrocyte (rbc) + …
[34] = systemic / urinalysis / potassium / potassium + systemic / urinalysis / sodium / sodium
[35] = systemic / in life observation / body weight / body weight gain + systemic / in life observation / food consumption / food efficiency + …
[36] = group: cholinesterase, cholinesterase / cholinesterase / cholinesterase / brain cholinesterase (che)
[37] = group: cholinesterase, cholinesterase / cholinesterase / cholinesterase / brain cholinesterase (che) + cholinesterase / cholinesterase / cholinesterase / …
[38] = group: systemic, systemic / hematology / erythrocyte (rbc) count differential / erythrocyte (rbc) + systemic / hematology / hematocrit (hct) / hematocrit (…
[39] = group: systemic, systemic / hematology / mean corpuscular hemoglobin concentration (mchc) / mean corpuscular hemoglobin concentration (mchc)
[40] = systemic / in life observation / body weight / body weight
[41] = systemic / in life observation / body weight / body weight + systemic / in life observation / mortality / mortality + systemic / pathology …
[42] = systemic / in life observation / body weight / body weight + systemic / in life observation / food consumption / food consumption + systemic…
[43] = group: cholinesterase, cholinesterase / cholinesterase / cholinesterase / erythrocyte cholinesterase (che) + cholinesterase / cholinesterase / cholinesterase / …
[44] = group: systemic, systemic / in life observation / clinical signs / [other]
[45] = cholinesterase / cholinesterase / cholinesterase / erythrocyte cholinesterase (che)
[46] = cholinesterase / cholinesterase / cholinesterase / erythrocyte cholinesterase (che) + cholinesterase / cholinesterase / cholinesterase / …

SMILES: C1CC2OC2CC1C1CO1 (stereo not given) [4-Vinyl-1-cyclohexene dioxide]
- LOAEL (rat [1]; [20]): > 80 mg/kg/day
- NOAEL (rat [1]; [20]): ≥ 80 mg/kg/day
- LEL (rat [1]; [21]): 40 mg/kg/day
- NEL (rat [1]; [21]): < 40 mg/kg/day
- LEL (rat [2]; [22]): 80 mg/kg/day
- LOAEL (rat [2]; [22]): > 80 mg/kg/day
- NEL (rat [2]; [22]): 20 mg/kg/day
- NOAEL (rat [2]; [22]): ≥ 80 mg/kg/day
- LEL (rat [2]; [23]): 80 mg/kg/day
- LOAEL (rat [2]; [23]): > 80 mg/kg/day
- NEL (rat [2]; [23]): 20 mg/kg/day
- NOAEL (rat [2]; [23]): ≥ 80 mg/kg/day

SMILES: CCNc1nc(NC(C)C)nc(SC)n1 [Ametryn]
- LEL (rat [3]; [24]): 20.9 mg/kg/day
- LOAEL (rat [3]; [24]): 20.9 mg/kg/day
- NEL (rat [3]; [25]): 2 mg/kg/day
- NOAEL (rat [3]; [25]): 2 mg/kg/day
- LEL (rat [4]; [26]): 131 mg/kg/day
- LOAEL (rat [4]; [26]): 131 mg/kg/day
- NEL (rat [4]; [26]): 13 mg/kg/day
- NOAEL (rat [4]; [26]): 13 mg/kg/day
- LEL (rat [4]; [27]): 131 mg/kg/day
- LOAEL (rat [4]; [27]): 131 mg/kg/day
- NEL (rat [4]; [27]): 13 mg/kg/day
- NOAEL (rat [4]; [27]): 13 mg/kg/day
- LEL (rat [5]; [28]): 50 mg/kg/day
- LOAEL (rat [5]; [28]): > 250 mg/kg/day
- NEL (rat [5]; [28]): 5 mg/kg/day
- NOAEL (rat [5]; [28]): ≥ 250 mg/kg/day
- LOAEL (rat [5]; group: maternal, systemic / in life observation / clinical signs / drooping eyelids (ptosis) + systemic / in life observation / clinical signs / salivation): 50 mg/kg/day
- LEL (rat [5]; [29]): 50 mg/kg/day
- NEL (rat [5]; [29]): 5 mg/kg/day
- NOAEL (rat [5]; [29]): 5 mg/kg/day
- LEL (dog [6]): 70 mg/kg/day
- LOAEL (dog [6]): 70 mg/kg/day
- NEL (dog [6]): 7.2 mg/kg/day
- NOAEL (dog [6]): 7.2 mg/kg/day
- LEL (rat [7]): 36.1 mg/kg/day
- LOAEL (rat [7]): 36.1 mg/kg/day
- NEL (rat [7]): 7.4 mg/kg/day
- NOAEL (rat [7]): 7.4 mg/kg/day

SMILES: CCCCN1C(=O)[C@@H]([C@H](O)C2CCCCC2)NC(=O)C12CCN(Cc1ccc(Oc3ccc(C(=O)O)cc3)cc1)CC2.Cl [Aplaviroc hydrochloride]
- LEL (primate): 30 mg/kg/day
- LOAEL (primate): > 1000 mg/kg/day
- NEL (primate): < 30 mg/kg/day
- NOAEL (primate): ≥ 1000 mg/kg/day
- LOAEL (rat [8]; [30]): > 750 mg/kg/day
- NOAEL (rat [8]; [30]): ≥ 750 mg/kg/day
- LEL (rat [8]; [31]): 100 mg/kg/day
- NEL (rat [8]; [31]): < 100 mg/kg/day
- LOAEL (rat [9]; [30]): > 1000 mg/kg/day
- NOAEL (rat [9]; [30]): ≥ 1000 mg/kg/day
- LEL (rat [9]; [32]): 30 mg/kg/day
- NEL (rat [9]; [32]): < 30 mg/kg/day

SMILES: O=C(O)c1cc(O)c(O)c(O)c1 [Gallic acid]
- LEL (rat [10]): 300 mg/kg/day
- LOAEL (rat [10]): 300 mg/kg/day
- NEL (rat [10]): 100 mg/kg/day
- NOAEL (rat [10]): 100 mg/kg/day

SMILES: CN(C)c1ccc(O)c2c1C[C@H]1C[C@H]3[C@H](N(C)C)C(=O)C(C(N)=O)=C(O)[C@@]3(O)C(=O)C1=C2O [Minocycline]
- LOAEL (dog [11]; [33]): > 40 mg/kg/day
- NOAEL (dog [11]; [33]): ≥ 40 mg/kg/day
- LEL (dog [11]; [34]): 5 mg/kg/day
- NEL (dog [11]; [34]): < 5 mg/kg/day

SMILES: COC(=O)Nc1cccc(OC(=O)Nc2cccc(C)c2)c1 [Phenmedipham]
- LOAEL (mouse [12]; systemic / in life observation / body weight / body weight gain + systemic / in life observation / food consumption / food efficiency): 1070 mg/kg/day
- NEL (mouse [12]; [35]): 75 mg/kg/day
- NOAEL (mouse [12]; [35]): 302 mg/kg/day
- LEL (mouse [12]; systemic / pathology gross / spleen / enlarged + systemic / pathology microscopic / adrenal gland / amyloid deposition + systemic / …): 302 mg/kg/day
- LEL (rat [13]; [36]): 3.5 mg/kg/day
- NEL (rat [13]; [36]): < 3.5 mg/kg/day
- LOAEL (rat [13]; [37]): > 366 mg/kg/day
- NOAEL (rat [13]; [37]): ≥ 366 mg/kg/day
- LOAEL (rat [13]; [38]): 35.4 mg/kg/day
- NOAEL (rat [13]; [38]): 3.5 mg/kg/day
- LEL (rat [13]; [39]): 3.5 mg/kg/day
- NEL (rat [13]; [39]): < 3.5 mg/kg/day

SMILES: CCNc1cc2oc3cc(=[NH+]CC)c(C)cc-3c(-c3ccccc3C(=O)OCC)c2cc1C.[Cl-] [Rhodamine 6G]
- LEL (mouse [14]; [40]): 300 mg/kg/day
- NEL (mouse [14]; [40]): 150 mg/kg/day
- LOAEL (mouse [14]; [41]): > 1200 mg/kg/day
- NOAEL (mouse [14]; [41]): ≥ 1200 mg/kg/day
- LOAEL (rat [15]; [42]): > 100 mg/kg/day
- NEL (rat [15]; [42]): 12.5 mg/kg/day
- NOAEL (rat [15]; [42]): ≥ 100 mg/kg/day
- LEL (rat [15]; systemic / in life observation / body weight / body weight + systemic / pathology microscopic / bone marrow / atrophy): 25 mg/kg/day
- LEL (rat [16]): 10 mg/kg/day
- LOAEL (rat [16]): > 10 mg/kg/day
- NEL (rat [16]): 5 mg/kg/day
- NOAEL (rat [16]): ≥ 10 mg/kg/day
- LEL (mouse [17]): 125 mg/kg/day
- LOAEL (mouse [17]): 125 mg/kg/day
- NEL (mouse [17]): < 125 mg/kg/day
- NOAEL (mouse [17]): < 125 mg/kg/day

SMILES: COP(=S)(OC)Oc1ccc(Sc2ccc(OP(=S)(OC)OC)cc2)cc1 [Temephos]
- LEL (dog [18]; [43]): 12.5 mg/kg/day
- LOAEL (dog [18]; [43]): 12.5 mg/kg/day
- NEL (dog [18]; [43]): 0.46 mg/kg/day
- NOAEL (dog [18]; [43]): 0.46 mg/kg/day
- LEL (dog [18]; [44]): 12.5 mg/kg/day
- LOAEL (dog [18]; [44]): 12.5 mg/kg/day
- NEL (dog [18]; [44]): 0.46 mg/kg/day
- NOAEL (dog [18]; [44]): 0.46 mg/kg/day
- LEL (rat [19]; [45]): 0.9 mg/kg/day
- LOAEL (rat [19]; [45]): 0.9 mg/kg/day
- NEL (rat [19]; [46]): 0.3 mg/kg/day
- NOAEL (rat [19]; [46]): 0.3 mg/kg/day
